Where no end group is shown, it is not given here.
Legend:
TLR4 = TLR4 expression in SW480 cells by immunocytochemistry / confocal microscopy; type: cell-based, human; settings: LPS 4 hours then SPA4 1 hour, more pronounced with 100 μM
Description: Expression of TLR4: Next, the effect of SPA4 peptide on the expression of TLR4 in SW480 cells was investigated by immunocytochemistry and laser confocal microscopy. Briefly, about 2.5×10^4 cells were seeded in an 8-well chamber slide (Thermo Fisher Scientific, Rochester, N.Y.) in complete medium. The cells were treated with E. coli O111:B4-derived, highly-purified, low-protein LPS (100 ng/ml or 1.0 μg/ml; Calbiochem, CA) for 4 hours following 1 hour incubation with SPA4 peptide (1, 10 and 100 μM). The cells were fixed in 3.5% paraformaldehyde in Dulbecco's PBS (DPBS) and permeabilized with 0.05% saponin solution (Inaba et al. 1998). The wells were washed with DPBS supplemented with 1% FBS and 0.05% saponin, and stained with TLR4-specific antibody (1:50 dilution, Abcam, Mass.) and 10 μg/ml Alexa-fluor 488-labeled secondary anti-rabbit IgG antibody (Invitrogen-Molecular Probes, CA). After washing, the cells were stained with 100 nM rhodamin-phallodin (Cytoskeleton Inc, CO) and 1 μg/ml Hoechst 33342 dyes (Invitrogen-Molecular Probes, CA). Confocal microscopic images were acquired at the Imaging core facility of the Oklahoma Medical Research Foundation, Oklahoma City, using the Zeiss LSM-510 META laser scanning confocal microscope. Images were acquired with lens objective of 63× with the x/y stack sizes being 146.2 μm using band pass filter specifications at 435-485, 560-615 and 505-530.

[1] = tested on: dendritic (JAWS II) and intestinal epithelial cells (SW480); test: Cell viability during the 5 hour TLR4 expression experiment; type: cell-based; settings: within the 5 hours of the experiment
Description: SPA4 peptide (SEQ ID NO:3) inhibits the LPS-induced TLR4 expression in dendritic cells and SW480 intestinal (colonic) epithelial cells. […] Both of these cells constitutively express the TLR4 gene; the protein expression is low in dendritic cells under basal conditions. […] First, it was determined if the SPA4 peptide inhibits LPS-induced expression of TLR4 in these cells. […] After a total of 5 hours, TLR4 expression was studied by confocal microscopy.

recombinant MD2 protein = target: T1, recombinant MD2 protein (Homo sapiens, UniProt Q9Y6Y9); test: Microwell-based binding to immobilized recombinant MD2 protein; settings: 0.25 μg MD2 per well
T1 construct: human MD-2 (mature region, Glu 17-Asn 160 amino acids); 10x histidine tag (C); signal peptide from human CD33 (N); purchased R&D Systems, MN; host or cells: mouse myeloma cell line NS0
T1 sequence (Q9Y6Y9 17-160): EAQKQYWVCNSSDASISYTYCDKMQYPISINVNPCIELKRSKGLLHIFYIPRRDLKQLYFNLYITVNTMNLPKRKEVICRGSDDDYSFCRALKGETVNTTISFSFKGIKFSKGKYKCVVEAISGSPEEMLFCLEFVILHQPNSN
Text: Interaction between purified baboon lung SP-A, SP-A-peptides and TLR4-MD2 proteins using a microwell-based method: The binding between the purified baboon lung SP-A, SP-A-peptides and recombinant TLR4-MD2 and MD2 proteins was studied in vitro using a microwell-based method (Awasthi et al., 2004). The soluble, recombinant TLR4-MD2 protein (R&D Systems, MN) consisted of a mixture of recombinant human-TLR4 and MD2 proteins. The recombinant extracellular domain of human TLR4 protein (Glu 24-Lys 631 amino acids), was joined with a DNA sequence encoding the signal peptide from human CD33 and a 10× histidine tag at the C-terminus (Accession # O00206). For MD2 protein, a DNA sequence encoding the signal peptide from human CD33 was joined with the mature region of human MD-2 (mature region, Glu 17-Asn 160 amino acids) and a 10× histidine tag at the C-terminus (Accession # Q9Y6Y9). […]
For the binding assay, microwell ultra-high-protein binding Immunolon 4HBX strips (Thermo Scientific, MA) were coated with soluble recombinant-TLR4-MD2 protein or MD2 protein (R&D Systems, 250 ng per well, diluted in 0.1 M NaHCO3, pH 9.6) overnight at room temperature. […] The immune-complex was detected using 3,3′,5,5′-tetramethylbenzidine (TMB) substrate system (Sigma-Aldrich, MO). The reaction was stopped with 2 N H2SO4 and read at 405 and/or 450 nm spectrophotometrically (Molecular Devices, CA).

Row | Substance | LPS-stimulated TLR4 expression (TLR4) | viability of cells [1] | binding to surface-bound MD2 protein (recombinant MD2 protein)
1 | GDFRYSDGTPVNYTNWYRGE [SPA4, GDFRYSDGT PVNYTNWYRGE] | reduced the LPS-stimulated TLR4 expression to basal level | does not affect the viability of cells | 
2 | SP-A: native surfactant protein-A purified from bronchioalveolar lavage fluid of a normal healthy adult baboon (MWLCPLALTLTLMAASGAACEVKDVCVGSPGIPGTPGSHGLPGRDGRDGVKGDPGPP; listed as Papio cynocephalus) |  |  | found to bind

Source: patent publication US8623832B2, “Peptide compositions that bind TLR-4” (The Board of Regents of the University of Oklahoma, priority 2011, dated 2014)
